We go through seven compounds from patent US6376169B1, “Method for diagnosing a vascular condition” (Queens University at Kingston, priority 1998, dated 2002).

The subject of data set [1] is RTP/Drg1. The following applies: A549 cells exposed to nickel; cited from earlier work.
The test system of another data set is uPAR. The following applies: vascular endothelial cells; cited from earlier work.
The next data set relates to uPAR mRNA. As to the kind of experiment: Northern blot of uPAR mRNA in HTR-8/SVneo cells. It counts as cell-based, human. The following applies: 10 ng/ml VEGF, 24 h, normoxic conditions. As to the method: To determine whether hypoxia regulates the expression of certain genes (e.g., PAI-1, uPAR, RTP/Drg1) via an iron-containing heme protein, cells were cultured for up to 72 h at 20% oxygen in the presence or absence of either 100 μM cobalt chloride, or 30 mM sodium 4,5-dihydroxybenzene-1,3-disulfonate (Tiron), or 100 μM desferrioxamine mesylate (DFO) (Sigma Chemical CO., St. Louis, Mo.). Further confirmation of the role of a heme protein in hypoxic responses can be achieved by culturing cells under hypoxia in the presence of carbon monoxide, which maintains the heme protein in the oxy state and thereby blocks heme protein-mediated hypoxic responses. […]
Northern Blot Analysis. Total RNA was isolated from cell lines as described above. […] RNA was transferred to nylon membranes (Micron Separations, Inc., Westboro, Mass.). […] The hybridization solution contained 6×SSC, 0.5% SDS, 100 μg/mL denatured salmon sperm DNA, 50% formamide and cDNA probe. After hybridization, the membranes were washed with 2×SSC and 0.5% SDS at room temperature for 15 min, 2×SSC and 0.1% SDS at room temperature for 15 min, and 0.1×SSC and 0.5% SDS for 30 min. Dupont Reflection NEF film (Dupont Canada, Inc., Mississauga, ON) was exposed to the membranes for 1-3 days at −80° C. Bands on radiographic film were analyzed using a SigmaGel gel analysis software package (Jandel Scientific Software, San Rafael, Calif.).

Another data set deals with APO-induced yawns. Put plainly: APO-induced yawning response. The data set is classed as in vivo, Wistar rats. As to the method:
The apomorphine (APO) bioassay of erectile function was performed in an isolated area. The rat model of APO-induced erections used to assess the effects of p,p-DDE and flutamide on erectile function was based on the model developed by Heaton et al J Urol. 145:1099 (1991). The animals were each placed in a separate hanging wire test cage in an isolated, dark and sound proof room and allowed to acclimatize to the surroundings for 10 minutes. Each rat received 80 ug/kg APO (Sigma Chemical Co., St. Louis, Mo.) prepared in physiological saline containing […] ascorbic acid via subcutaneous (s.c.) injection (lml/kg at the nape of the neck). Erectile and yawning responses to APO were monitored and recorded (30 minutes) in an adjacent room via a video monitoring system.
(§1) An erection was counted when an engorged glans penis and distal shaft were exposed. A wide opening of the mouth associated with appropriate respiratory movement identified a yawn. […] Rats with unsatisfactory control erectile response were removed from further study.

The subject of another data set is APO-induced erections. As to the kind of experiment: Apomorphine (APO) bioassay of erectile function. The data set is classed as in vivo, Wistar rats.
Excerpt: 16 adult male Wistar rats from Charles River Laboratories (Montreal, Quebec) weighing 300-350 g were used in the investigation. The animals were divided into two study groups. The animals were individually housed in a climate-controlled room under a 12-hour light/dark cycle and allowed access to food (Purina Lab Chow) and water ad libitum. All procedures were in accordance with the guidelines set out by the Canadian Council on Animal Care. The animals were allowed to acclimate 5 days prior to testing and were handled by the researcher during this time.
The apomorphine (APO) bioassay of erectile function was performed in an isolated area. […] The animals were each placed in a separate hanging wire test cage in an isolated, dark and sound proof room and allowed to acclimatize to the surroundings for 10 minutes. Each rat received 80 ug/kg APO (Sigma Chemical Co., St. Louis, Mo.) prepared in physiological saline containing […] ascorbic acid via subcutaneous (s.c.) injection (lml/kg at the nape of the neck). Erectile and yawning responses to APO were monitored and recorded (30 minutes) in an adjacent room via a video monitoring system.
as §1
Yawns were not altered in either protocol (data not shown).
The 270 mg/kg dose was prepared, requiring initial heating and stirring. This dose was administered in a single injection (1 ml/kg, i.p. of a 270 mg/ml concentration) half an hour prior to the commencement of APO-induced erectile monitoring.
At one week intervals, rats were given single, increasing doses of flutamide (25, 35, or 50 mg/kg) (Sigma Chemical Co., St. Louis, Mo.). For each dose, flutamide was dissolved in peanut oil and administered via i.p injection in a volume of 1 ml/kg. […] Each dose of flutamide was given 1 week after the previous dose, to allow APO-induced erections to return to control levels.
From the group of 8 rats, 4 rats were randomly selected.
Testosterone was administered in an attempt to recover APO-induced erections to control levels.
The required testosterone concentrations were prepared using 100 mg/ml testosterone propionate (Taro Pharmaceuticals, Brarnalea, ON.) diluted in peanut oil. Each dose was administered in a 1 ml/kg volume.
For each APO testing protocol, the average number of erections and standard deviation was determined. […] Therefore, each rat served as its own control. Treated values were compared to control values using Student's paired t-test, except where noted in Study 2b.

The subject of a further data set is hepatic cytochromes P450. The following applies: literature; cited from earlier work.
For data set [2] the following is noted: pubertal or adults rats, Kelce et al; cited from earlier work.
Another data set relates to RTP/Drg1 protein. Put plainly: Western blot of RTP/Drg1 protein in MDA-MB-231 cells. The data set is classed as cell-based, human. The following applies: 20% oxygen, up to 72 h; 100 μM cobalt chloride, 30 mM Tiron or 100 μM DFO. As to the method: (§2) To determine whether hypoxia regulates the expression of certain genes (e.g., PAI-1, uPAR, RTP/Drg1) via an iron-containing heme protein, cells were cultured for up to 72 h at 20% oxygen in the presence or absence of either 100 μM cobalt chloride, or 30 mM sodium 4,5-dihydroxybenzene-1,3-disulfonate (Tiron), or 100 μM desferrioxamine mesylate (DFO) (Sigma Chemical CO., St. Louis, Mo.). Further confirmation of the role of a heme protein in hypoxic responses can be achieved by culturing cells under hypoxia in the presence of carbon monoxide, which maintains the heme protein in the oxy state and thereby blocks heme protein-mediated hypoxic responses. Thus, cells were also cultured for 24 h at 37° C. under hypoxic conditions in the presence of 30% carbon monoxide.
Western Blot Analysis. To examine levels of RTP/Drg1 protein, cells were lysed with buffer containing 40 mM HEPES pH 7.2, 100 mM NaCl, 20% glycerol, 0.1 mM EDTA pH 8.0, 0.2% Triton X-100 (polyoxyethylene (10) isooctylphenyl ether), 1 mM DTT, and 2 mM PMSF, and centrifuged briefly at 4° C. The supernatants were collected and stored at −80° C. until use. SDS-PAGE was performed and resolved proteins were transferred to Immobilon-P membranes (Millipore Corp., Bedford, Mass.) using a semi-dry transfer cell (Bio-Rad Laboratories, Mississauga, ON). Membranes were blocked by incubation overnight at 4° C. in a PBS-buffered solution containing 0.01% Tween 20 (polyoxyethylene(20) sorbitan monolaurate) (PBS-T) and 5% casein. The blots were then incubated with polyclonal rabbit anti-Drg1 antiserum followed by incubation with a peroxidase labeled goat anti-rabbit IgG secondary antibody (Vector Lab. Inc., Burlingame, Calif.). Antigen was detected by enhanced chemiluminescence (ECL, Amersham Canada Inc., Oakville, ON) and exposure of the membrane onto Dupont Reflection NEF film (Dupont Canada, Inc., Mississauga ON).

For a further data set, the system named is RTP/Drg1 mRNA. As to the kind of experiment: Northern blot of RTP/Drg1 mRNA in MDA-MB-231 cells. The data set is classed as cell-based, human. The following applies: 20% oxygen, up to 72 h; 100 μM cobalt chloride, 30 mM Tiron or 100 μM DFO. As to the method: as §2
Northern Blot Analysis. Total RNA was isolated from cell lines as described above. Aliquots of 20 μg were denatured and subjected to electrophoresis in 1% agarose-formaldehyde gels (Sambrook, J., Fritsch, E. F., and Maniatis, T. Molecular Cloning: A Laboratory Manual, Cold Spring Harbor Laboratory, Cold Spring Harbor, N.Y. (1989)). RNA was transferred to nylon membranes (Micron Separations, Inc., Westboro, Mass.). After prehybridization at 42° C. for 2-3 h in 50% formamide, 5×Denhardt's solution, 0.5% sodium dodecyl sulfate (SDS), 6×SSC (1×SSC: 0.15M NaCl, 15 mM sodium citrate, pH 7.0), and 100 μg/mL denatured salmon sperm DNA, membranes were hybridized for a period of time of overnight (˜18 h) to about 72 h at 42° C. with a cDNA probe (e.g., RTP/Drg1, PAI-1 (PAI-1 cDNA provided by Dr. Keith McCrae, Temple University School of Medicine, Philadelphia, Pa.), uPAR (Higazi A, et al., J Biol Chem 266:12752, (1995)) pre-labeled with [^32P]-dCTP using a Pharmacia Oligolabelling kit (Pharmacia Biotech, Piscataway, N.J.). The hybridization solution contained 6×SSC, 0.5% SDS, 100 μg/mL denatured salmon sperm DNA, 50% formamide and cDNA probe. After hybridization, the membranes were washed with 2×SSC and 0.5% SDS at room temperature for 15 min, 2×SSC and 0.1% SDS at room temperature for 15 min, and 0.1×SSC and 0.5% SDS for 30 min. Dupont Reflection NEF film (Dupont Canada, Inc., Mississauga, ON) was exposed to the membranes for 1-3 days at −80° C. Bands on radiographic film were analyzed using a SigmaGel gel analysis software package (Jandel Scientific Software, San Rafael, Calif.).

In data set [3] the test system is RTP/Drg1. The following applies: endothelial cells treated with homocysteine; cited from earlier work.

“Also recorded” adds a separate entry of the source. Counter-ions that a name gives are not always drawn. Like-named read-outs stand apart in the source and are kept apart here.

On to `[Ni]` [nickel], for which the “expression of RTP/Drg1” value in the data set on RTP/Drg1 [1] was “increased”.

For VEGF, the “expression of uPAR” value in the data set with uPAR is reported as “increases the expression of uPAR”. Besides, the “induction of uPAR mRNA” value with uPAR mRNA is reported as “did not result in increased levels of uPAR transcript; also recorded: does not induce”.

Consider `CCC(=O)O[C@H]1CC[C@H]2[C@@H]3CCC4=CC(=O)CC[C@]4(C)[C@H]3CC[C@]12C` [testosterone, testosterone propionate], for which, in the data set on APO-induced yawns (p,p-DDE treated rats, 12 hour test periods), the “APO-induced yawning responses after testosterone supplementation” value is “did not change the status of yawning responses”. Also, in the data set on APO-induced erections (480 ug/kg, 1.2 or 2.4 mg/kg i.p., 0.5, 4, 12 hours, two weeks after p,p-DDE), the “APO-induced erections in p,p-DDE treated rats after testosterone supplementation” value is reported as “no significant increases in erections; also recorded: remained significantly decreased at most of the time points; also recorded: failed to return APO-induced erections to control levels”.

For the compound `ClC(Cl)=C(c1ccc(Cl)cc1)c1ccc(Cl)cc1` [p,p-DDE], the APO-induced yawns entry with APO-induced yawns (500 mg/kg p,p-DDE, two week assessment) is listed as “not significantly different from control levels; also recorded: little effect”. The APO-induced yawning responses result in the data set with APO-induced yawns (p,p-DDE treatment, Study 1) is listed as “not altered”. Besides, in the data set with APO-induced erections (270 mg/kg p,p-DDE i.p., 5 hour testing period, Study 1), the APO-induced erections result is “no significant effect”. For the same compound, the APO-induced erectile response entry with APO-induced erections (500 mg/kg p,p-DDE i.p., 3 hours after administration, Study 1) is listed as “significant decrease”. The “APO-induced erectile response two weeks after administration” value in the data set on APO-induced erections (500 mg/kg p,p-DDE vs control and 50 mg/kg flutamide) is “significantly different from controls and from the flutamide two week response; also recorded: remained significantly lower than controls; also recorded: significantly different from both control and 50 mg/kg flutamide responses”. For the same compound, the “APO-induced erections, time course” value in the data set with APO-induced erections (single dose 500 mg/kg p,p-DDE, 0.5, 4, 12, 24 hours and 2 weeks, 500 mg/kg) is “significantly decreased; also recorded: persistently suppressed”. The “metabolism upon administration / absorption” value in the data set with hepatic cytochromes P450 is listed as “not metabolised”. In addition, in [2], the plasma testosterone levels result is on record as “did not alter plasma testosterone levels”.

As for `CC(=O)N(O)CCCCCNC(=O)CCC(=O)N(O)CCCCCNC(=O)CCC(=O)N(O)CCCCCN` [DFO, desferrioxamine mesylate], the “levels of RTP/Drg1 protein” value in the data set on RTP/Drg1 protein was “time-dependent increases in RTP/Drg1 protein”. For the same compound, the “levels of RTP/Drg1 mRNA” value in the data set on RTP/Drg1 mRNA is given as “time-dependent increases in RTP/Drg1 mRNA”.

In the case of `N[C@@H](CCS)C(=O)O` [homocysteine], the “expression of RTP/Drg1” value in the data set with RTP/Drg1 [3] is on record as “increased”.

`CC(C)C(=O)Nc1ccc([N+](=O)[O-])c(C(F)(F)F)c1` [flutamide]: the “metabolism upon administration / absorption” value with hepatic cytochromes P450 was “rapidly metabolised by hepatic cytochromes P450”.
